# Data as given in US12474353B2, “Methods and materials for assessing and treating obesity” (Mayo Foundation for Medical Education and Research, priority 2017, dated 2025).
# Conditions: human, in vivo
# Protocol: The applicability of obesity-related phenotypes as actionable biomarkers was tested in three pilot, proof of concept studies (see, e.g., Acosta et al., 2015 Gastroenterology 148:537-546; Acosta et al., 2015 Physiol Rep 3; and Halawi et al., 2017 Lancet Gastroenterol Hepatol 2:890-899). First, in a single-center, randomized, parallel-group, double-blind, placebo-controlled, 14-day study, the effects of Phentermine-topiramate-ER (PhenTop) (7.5/46 mg, orally, daily) on gastric emptying (GE) and volume, satiation, satiety, and fasting and postprandial GI hormones was evaluated in 24 obese adults. […] Subsequently, in a prospective, NIH-funded, randomized, placebo controlled clinical trial to study the effects of liraglutide 3 mg, SQ, over 16 weeks on obesity phenotypes and weight in 40 obese patients. […]
# A prospective, randomized clinical trial with liraglutide, a long-acting GLP-1 receptor agonist, was completed. […] At baseline and after 16 weeks' treatment, weight, gastric emptying of solids (GES, primary endpoint), large fasting gastric volumes, satiation, and satiety were measured. GES was also measured at 5 weeks. […] Effect of liraglutide on GES T1/2 at 5 and 16 weeks in the liraglutide group was analyzed by paired t-test. Seventeen participants were analyzed in the liraglutide group (n=19 randomized) and 18 in the placebo group (n=21 randomized).
compound,measurement,value
CCCCCCCCCCCCCCCC(=O)N[C@@H](CCC(=O)NCCCC[C@H](NC(=O)[C@H](C)NC(=O)[C@H](C)NC(=O)[C@H](CCC(N)=O)NC(=O)CNC(=O)[C@H](CCC(=O)O)NC(=O)[C@H](CC(C)C)NC(=O)[C@H](Cc1ccc(O)cc1)NC(=O)[C@H](CO)NC(=O)[C@H](CO)NC(=O)[C@@H](NC(=O)[C@H](CC(=O)O)NC(=O)[C@H](CO)NC(=O)[C@@H](NC(=O)[C@H](Cc1ccccc1)NC(=O)[C@@H](NC(=O)CNC(=O)[C@H](CCC(=O)O)NC(=O)[C@H](C)NC(=O)[C@@H](N)Cc1cnc[nH]1)[C@@H](C)O)[C@@H](C)O)C(C)C)C(=O)N[C@@H](CCC(=O)O)C(=O)N[C@@H](Cc1ccccc1)C(=O)N[C@H](C(=O)N[C@@H](C)C(=O)N[C@@H](Cc1c[nH]c2ccccc12)C(=O)N[C@@H](CC(C)C)C(=O)N[C@H](C(=O)N[C@@H](CCCNC(=N)N)C(=O)NCC(=O)N[C@@H](CCCNC(=N)N)C(=O)NCC(=O)O)C(C)C)[C@@H](C)CC)C(=O)O [liraglutide],Nausea (most common adverse event),63.2%
